From ChEMBL document CHEMBL3885881, “DrugMatrix”

Species: Rattus norvegicus
Assay: DrugMatrix - Regimen: Daily Repeat
Format: toxicity, organism-based, Sprague-Dawley
Design: regimen Daily Repeat, gender Male, age 6-8 weeks
Details: in vivo, po, route oral GAVAGE, vehicle 100 % WATER; for BASOPHIL / EOSINOPHIL / ERYTHROCYTE COUNT / HEMATOCRIT / HEMOGLOBIN / LEUKOCYTE COUNT / LYMPHOCYTE / MEAN CORPUSCULAR HEMOGLOBIN / MEAN CORPUSCULAR HEMOGLOBIN CONCENTRATION / MEAN CORPUSCULAR VOLUME / MONOCYTE / NEUTROPHIL / PLATELET COUNT: tissue Blood; for ALANINE AMINOTRANSFERASE / ALBUMIN / ALKALINE PHOSPHATASE / ASPARTATE AMINOTRANSFERASE / BLOOD UREA NITROGEN / CHLORIDE / CHOLESTEROL / CREATINE PHOSPHOKINASE / CREATININE / GLUCOSE / PHOSPHORUS / POTASSIUM / SODIUM / TOTAL BILIRUBIN / TOTAL PROTEIN: tissue Plasma
[1] = 0 mg/kg, 72 h, dose level Control, time 3 day
[2] = 0 mg/kg, 120 h, dose level Control, time 5 day
[3] = 3 mg/kg, 72 h, dose level Low, time 3 day
[4] = 3 mg/kg, 120 h, dose level Low, time 5 day
[5] = 24 mg/kg, 72 h, dose level High, time 3 day
[6] = 24 mg/kg, 120 h, dose level High, time 5 day

With `Nc1c2c(nc3ccccc13)CCCC2` [TACRINE] the BASOPHIL [1] was 0%, the EOSINOPHIL [1] was 0.5% and the “ERYTHROCYTE COUNT” value [1] was 5.8 x10E6/uL. The HEMATOCRIT [1] was 35.07%, the HEMOGLOBIN [1] was 14.12 G/DL and the “LEUKOCYTE COUNT” value [1] was 13.7 x10E3/uL. The LYMPHOCYTE [1] was 82.33%, the “MEAN CORPUSCULAR HEMOGLOBIN” value [1] was 24.38 pg and the “MEAN CORPUSCULAR HEMOGLOBIN CONCENTRATION” value [1] was 40.28 G/DL. The “MEAN CORPUSCULAR VOLUME” value [1] was 60.52 fL, the MONOCYTE [1] was 2.67% and the NEUTROPHIL [1] was 14.5%. The “PLATELET COUNT” value [1] was 911.5 x10E3/uL, the “ALANINE AMINOTRANSFERASE” value [1] was 36.83 u/L and the ALBUMIN [1] was 3.75 G/DL. For the same compound, the “ALKALINE PHOSPHATASE” value [1] was 399.83 u/L, the “ASPARTATE AMINOTRANSFERASE” value [1] was 66 u/L and the “BLOOD UREA NITROGEN” value [1] was 14.67 mg/dL. The CHLORIDE [1] was 101.67 MEQ/L, the CHOLESTEROL [1] was 66.33 mg/dL and the “CREATINE PHOSPHOKINASE” value [1] was 139.5 u/L. The CREATININE [1] was 0.92 mg/dL, the GLUCOSE [1] was 175 mg/dL and the PHOSPHORUS [1] was 11.42 mg/dL. The POTASSIUM [1] was 7.03 MEQ/L, the SODIUM [1] was 148.5 MEQ/L and the “TOTAL BILIRUBIN” value [1] was 1.13 mg/dL. For the same compound, the “TOTAL PROTEIN” value [1] was 6.87 G/DL, the BASOPHIL [2] was 0% and the EOSINOPHIL [2] was 0.2%. The “ERYTHROCYTE COUNT” value [2] was 6.02 x10E6/uL, the HEMATOCRIT [2] was 36.48% and the HEMOGLOBIN [2] was 14.38 G/DL. For the same compound, the “LEUKOCYTE COUNT” value [2] was 12.34 x10E3/uL, the LYMPHOCYTE [2] was 83% and the “MEAN CORPUSCULAR HEMOGLOBIN” value [2] was 23.92 pg. For the same compound, the “MEAN CORPUSCULAR HEMOGLOBIN CONCENTRATION” value [2] was 39.44 G/DL, the “MEAN CORPUSCULAR VOLUME” value [2] was 60.66 fL and the MONOCYTE [2] was 3%. The NEUTROPHIL [2] was 13.8%, the “PLATELET COUNT” value [2] was 1190.6 x10E3/uL and the “ALANINE AMINOTRANSFERASE” value [2] was 43 u/L. For the same compound, the ALBUMIN [2] was 3.73 G/DL, the “ALKALINE PHOSPHATASE” value [2] was 393 u/L and the “ASPARTATE AMINOTRANSFERASE” value [2] was 62.33 u/L. For the same compound, the “BLOOD UREA NITROGEN” value [2] was 16.33 mg/dL, the CHLORIDE [2] was 101.67 MEQ/L and the CHOLESTEROL [2] was 65.5 mg/dL. The “CREATINE PHOSPHOKINASE” value [2] was 130.67 u/L, the CREATININE [2] was 0.58 mg/dL and the GLUCOSE [2] was 180.67 mg/dL. It also gave a PHOSPHORUS [2] of 11.28 mg/dL, a POTASSIUM [2] of 7.05 MEQ/L and an SODIUM [2] of 148.17 MEQ/L. For the same compound, the “TOTAL BILIRUBIN” value [2] was 0.72 mg/dL, the “TOTAL PROTEIN” value [2] was 6.83 G/DL and the BASOPHIL [3] was 0%. The EOSINOPHIL [3] was 0.33%, the “ERYTHROCYTE COUNT” value [3] was 5.96 x10E6/uL and the HEMATOCRIT [3] was 36.4%. The HEMOGLOBIN [3] was 14.47 G/DL, the “LEUKOCYTE COUNT” value [3] was 12.6 x10E3/uL and the LYMPHOCYTE [3] was 87.33%. For the same compound, the “MEAN CORPUSCULAR HEMOGLOBIN” value [3] was 24.3 pg, the “MEAN CORPUSCULAR HEMOGLOBIN CONCENTRATION” value [3] was 39.77 G/DL and the “MEAN CORPUSCULAR VOLUME” value [3] was 61.13 fL. For the same compound, the MONOCYTE [3] was 1.67%, the NEUTROPHIL [3] was 10.67% and the “PLATELET COUNT” value [3] was 1303 x10E3/uL. For the same compound, the “ALANINE AMINOTRANSFERASE” value [3] was 36.33 u/L, the ALBUMIN [3] was 3.6 G/DL and the “ALKALINE PHOSPHATASE” value [3] was 362.33 u/L. For the same compound, the “ASPARTATE AMINOTRANSFERASE” value [3] was 59 u/L, the “BLOOD UREA NITROGEN” value [3] was 11.33 mg/dL and the CHLORIDE [3] was 102.67 MEQ/L. For the same compound, the CHOLESTEROL [3] was 64.33 mg/dL, the “CREATINE PHOSPHOKINASE” value [3] was 137.67 u/L and the CREATININE [3] was 0.53 mg/dL. The GLUCOSE [3] was 188 mg/dL, the PHOSPHORUS [3] was 12.8 mg/dL and the POTASSIUM [3] was 7.17 MEQ/L. The SODIUM [3] was 151.33 MEQ/L, the “TOTAL BILIRUBIN” value [3] was 0.37 mg/dL and the BASOPHIL [4] was 0%. The EOSINOPHIL [4] was 0%, the “ERYTHROCYTE COUNT” value [4] was 5.42 x10E6/uL and the HEMATOCRIT [4] was 32.47%. For the same compound, the HEMOGLOBIN [4] was 13.8 G/DL, the “LEUKOCYTE COUNT” value [4] was 15.5 x10E3/uL and the LYMPHOCYTE [4] was 85.67%. For the same compound, the “MEAN CORPUSCULAR HEMOGLOBIN” value [4] was 25.47 pg, the “MEAN CORPUSCULAR HEMOGLOBIN CONCENTRATION” value [4] was 42.53 G/DL and the “MEAN CORPUSCULAR VOLUME” value [4] was 59.87 fL. The MONOCYTE [4] was 2%, the NEUTROPHIL [4] was 12.33% and the “PLATELET COUNT” value [4] was 1161.67 x10E3/uL. For the same compound, the “ALANINE AMINOTRANSFERASE” value [4] was 32 u/L, the ALBUMIN [4] was 3.63 G/DL and the “ALKALINE PHOSPHATASE” value [4] was 344.33 u/L. For the same compound, the “ASPARTATE AMINOTRANSFERASE” value [4] was 54 u/L, the “BLOOD UREA NITROGEN” value [4] was 12.67 mg/dL and the CHLORIDE [4] was 103 MEQ/L. For the same compound, the CHOLESTEROL [4] was 67.33 mg/dL, the “CREATINE PHOSPHOKINASE” value [4] was 106 u/L and the CREATININE [4] was 0.57 mg/dL. It also gave a GLUCOSE [4] of 184.33 mg/dL, a PHOSPHORUS [4] of 12.4 mg/dL and a POTASSIUM [4] of 6.33 MEQ/L. The SODIUM [4] was 150.33 MEQ/L, the “TOTAL BILIRUBIN” value [4] was 0.37 mg/dL and the “TOTAL PROTEIN” value [4] was 6.6 G/DL. For the same compound, the BASOPHIL [5] was 0%, the EOSINOPHIL [5] was 0.33% and the “ERYTHROCYTE COUNT” value [5] was 6.15 x10E6/uL. The HEMATOCRIT [5] was 36.57%, the HEMOGLOBIN [5] was 14.57 G/DL and the “LEUKOCYTE COUNT” value [5] was 11.57 x10E3/uL. For the same compound, the LYMPHOCYTE [5] was 88%, the “MEAN CORPUSCULAR HEMOGLOBIN” value [5] was 23.7 pg and the “MEAN CORPUSCULAR HEMOGLOBIN CONCENTRATION” value [5] was 39.83 G/DL. The “MEAN CORPUSCULAR VOLUME” value [5] was 59.5 fL, the MONOCYTE [5] was 2.67% and the NEUTROPHIL [5] was 9%. The “PLATELET COUNT” value [5] was 1311.33 x10E3/uL, the “ALANINE AMINOTRANSFERASE” value [5] was 35.33 u/L and the ALBUMIN [5] was 3.7 G/DL. The “ALKALINE PHOSPHATASE” value [5] was 375 u/L, the “ASPARTATE AMINOTRANSFERASE” value [5] was 63.67 u/L and the “BLOOD UREA NITROGEN” value [5] was 12 mg/dL. For the same compound, the CHLORIDE [5] was 101.67 MEQ/L, the CHOLESTEROL [5] was 59.33 mg/dL and the “CREATINE PHOSPHOKINASE” value [5] was 117 u/L. For the same compound, the CREATININE [5] was 0.53 mg/dL, the GLUCOSE [5] was 189 mg/dL and the PHOSPHORUS [5] was 12.73 mg/dL. The POTASSIUM [5] was 6.83 MEQ/L, the SODIUM [5] was 150 MEQ/L and the “TOTAL BILIRUBIN” value [5] was 0.37 mg/dL. The “TOTAL PROTEIN” value [5] was 6.53 G/DL, the BASOPHIL [6] was 0% and the EOSINOPHIL [6] was 0.33%. The “ERYTHROCYTE COUNT” value [6] was 6.22 x10E6/uL, the HEMATOCRIT [6] was 37.53% and the HEMOGLOBIN [6] was 14.57 G/DL. For the same compound, the “LEUKOCYTE COUNT” value [6] was 11.73 x10E3/uL, the LYMPHOCYTE [6] was 88.33% and the “MEAN CORPUSCULAR HEMOGLOBIN” value [6] was 23.43 pg. For the same compound, the “MEAN CORPUSCULAR HEMOGLOBIN CONCENTRATION” value [6] was 38.8 G/DL, the “MEAN CORPUSCULAR VOLUME” value [6] was 60.47 fL and the MONOCYTE [6] was 2.33%. For the same compound, the NEUTROPHIL [6] was 9%, the “PLATELET COUNT” value [6] was 1085 x10E3/uL and the “ALANINE AMINOTRANSFERASE” value [6] was 38 u/L. The ALBUMIN [6] was 3.53 G/DL, the “ALKALINE PHOSPHATASE” value [6] was 295.33 u/L and the “ASPARTATE AMINOTRANSFERASE” value [6] was 62.67 u/L. The “BLOOD UREA NITROGEN” value [6] was 13.33 mg/dL, the CHLORIDE [6] was 104.67 MEQ/L and the CHOLESTEROL [6] was 62 mg/dL. The “CREATINE PHOSPHOKINASE” value [6] was 114.67 u/L, the CREATININE [6] was 0.6 mg/dL and the GLUCOSE [6] was 171 mg/dL. It also gave a PHOSPHORUS [6] of 12.57 mg/dL, a POTASSIUM [6] of 6.4 MEQ/L and an SODIUM [6] of 152.33 MEQ/L. For the same compound, the “TOTAL BILIRUBIN” value [6] was 0.27 mg/dL and the “TOTAL PROTEIN” value [6] was 6.33 G/DL.
